Results published in patent publication US20070111251A1, “Chemical address tags” (priority 2003, published 2007).

Test system: HeLa cells
Assay: Kinetic imaging of NBD-triazine probe uptake and sequestration, fitted to nested two-compartment transport model
Type: cell-based
Details: median over optimal solutions within 5% of the best fit
Description: In living cells, image data was simultaneously acquired with an automated, high-content, kinetic screening instrument equipped with an environmental chamber (see, e.g., V. C. Abraham, D. L. Taylor and J. R. Haskins, Trends in Biotechnology 22, 15 (2004); herein incorporated by reference in its entirety), as cells were incubated with the fluorescent molecules and after removal of extracellular probe. Data was analyzed off line, using an image analysis algorithm to measure the statistical pixel intensity distribution associated with fluorescence probe sequestration in the perinuclear region (see, e.g., FIG. 21; see also, e.g., G. J. Ding et al., Journal of Biological Chemistry 273, 28897 (1998); herein incorporated by reference in its entirety). Data was parametrized with a nested, two-compartment, transport model (see, e.g., W. E. Evans, J. J. Schentag and W. J. Jusko., Applied Pharmacokinetics: Principles of Therapeutic Drug Monitoring (Lippincott Williams & Wilkins, Vancouver, W.A., 1992); herein incorporated by reference in its entirety), using a statistical link function to relate the kinetic coefficient of variation (CV) of pixel intensities in the images with the concentration of probe in vesicles and cytoplasm. Optimal kinetic parameters fitting the experimental data for each probe to the system described by the two-compartment model and statistical link function were determined using the simulated annealing technique (see, e.g., M. Pincus., Oper. Res. 18, 1225 (1979); herein incorporated by reference in its entirety). The present invention is not limited to a particular mechanism. Indeed, an understanding of the mechanism is not necessary to practice the present invention.
To assess how well the model accounts for all the different kinetic traces acquired, a “PVE” (proportion of variance explained) by the model was calculated. The PVE is one minus the ratio of the sum of squared differences between observed and fitted values to the sum of squared differences between observed values and their mean. PVE values close to one indicate good fit to the nested two-compartment model. The average PVE across the probes was 0.92, with >50% of the probes yielded PVE values […]. The present invention is not limited to a particular mechanism. Indeed, an understanding of the mechanism is not necessary to practice the present invention.
Cell culture. HeLa cells were grown in RPMI+10% FCS in a 5% CO2 atmosphere at 37° C. and plated in 96-well plates at a density of 3000 cells/well 24 hours prior to the start of the experiment.
Kinetic Imaging. For influx experiments, cells on 96-well plates were switched to imaging media consisting of RPMI containing 1.0 mM Bromophenol Blue—a soluble, cell-impermeant chromophore used to suppress excitation and emission of extracellular (background) dye fluorescence-, 10 μM probe and 0.1 μM Hoescht 33258 to label the cell nuclei. Plates were then transferred to a KineticScan instrument (Cellomics, Inc., Pittsburgh, Pa.), which contains an environmentally controlled CO2/temperature/humidity chamber, and data was acquired with a 20× objective lens. Images acquisition began approximately 10 min after dye addition, using the Hoescht channel to acquire nuclear images and FITC channel to acquire the NBD image. Plate-scanning mode was used for scanning, in which the instrument builds time-stacks of images by scanning the plate multiple times, returning to the same site of the plate at every scan. For efflux experiments, dye-containing media was removed from the wells of the plate. The wells were washed twice with fresh RPMI medium, imaging media was added, and image acquisition restarted 7 min after the dye-containing media was removed. The last time points of the influx experiment served as the first time point of the efflux experiment. Plates were scanned for approximately two hours in the influx experiment and six hours for the efflux experiment, with each well imaged on average every 7 minutes. […]

Row | SMILES | median Pap(cyto) (apparent partition coefficient between extracellular medium and cytosol) | median Pap(ves) (apparent partition coefficient between cytosol and intracellular vesicles, k(ves)in/k(ves)out)
1 | COc1cccc(CNc2nc(NCCCCCCNc3ccc([N+](=O)[O-])c4nonc34)nc(NCCc3ccccc3)n2)c1 [Compound B10] | 8.21 | 27.03
2 | O=[N+]([O-])c1ccc(NCCCCCCNc2nc(NCCC(c3ccccc3)c3ccccc3)nc(NCC3CCCCC3)n2)c2nonc12 [Compound F6] | 6.76 | 19.41
3 | COc1ccc(CCNc2nc(NCCCCCCNc3ccc([N+](=O)[O-])c4nonc34)nc(NC3CCCCC3C)n2)cc1 (stereo not drawn) [Compound D5] | 9.15 | 13.58
4 | COc1cccc(CNc2nc(NCCCCCCNc3ccc([N+](=O)[O-])c4nonc34)nc(NCC3CCCCC3)n2)c1OC [Compound H6] | 8.77 | 22.55
5 | O=[N+]([O-])c1ccc(NCCCCCCNc2nc(NCc3ccccc3)nc(NC3CCCCC3)n2)c2nonc12 [Compound A7] | 7.55 | 33.83
6 | CC(C)Nc1nc(NCCCCCCNc2ccc([N+](=O)[O-])c3nonc23)nc(NCc2cccc(F)c2)n1 [Compound E2] | 49.62 | 8.43
7 | COc1ccc(CNc2nc(NCCCCCCNc3ccc([N+](=O)[O-])c4nonc34)nc(NC3CCCCC3)n2)cc1 [Compound C7] | 12.58 | 12.01
8 | COc1cccc(CNc2nc(NCCCCCCNc3ccc([N+](=O)[O-])c4nonc34)nc(NCCC(C)C)n2)c1OC [Compound H8] | 12.95 | 15.10
9 | CCCCNc1nc(NCCCCCCNc2ccc([N+](=O)[O-])c3nonc23)nc(NCc2ccc(OC)cc2)n1 [Compound C1] | 10.25 | 22.06
10 | COc1ccc(CCNc2nc(NCCCCCCNc3ccc([N+](=O)[O-])c4nonc34)nc(NC3CCCCC3)n2)cc1 [Compound D7] | 8.37 | 28.56
11 | COc1ccc(CCNc2nc(NCCCCCCNc3ccc([N+](=O)[O-])c4nonc34)nc(NC(C)C)n2)cc1 [Compound D2] | 149.28 | 1.53
12 | O=[N+]([O-])c1ccc(NCCCCCCNc2nc(NCCc3ccccc3)nc(NCCC(c3ccccc3)c3ccccc3)n2)c2nonc12 [Compound F10] | 1.44 | 53.44
13 | CCCCCCCCNc1nc(NCCCCCCNc2ccc([N+](=O)[O-])c3nonc23)nc(NCc2cccc(OC)c2OC)n1 [Compound H3] | 7.51 | 14.91
14 | CCCCNc1nc(NCCCCCCNc2ccc([N+](=O)[O-])c3nonc23)nc(NCc2cccc(OC)c2OC)n1 [Compound H1] | 161.46 | 0.42
15 | CCCCCCCCNc1nc(NCCCCCCNc2ccc([N+](=O)[O-])c3nonc23)nc(NCCC(c2ccccc2)c2ccccc2)n1 [Compound F3] | 21.91 | 9.79
16 | CCCCNc1nc(NCCCCCCNc2ccc([N+](=O)[O-])c3nonc23)nc(NCc2ccccc2)n1 [Compound A1] | 185.83 | 0.52
17 | CC1CCCCC1Nc1nc(NCCCCCCNc2ccc([N+](=O)[O-])c3nonc23)nc(NCc2ccccc2)n1 (stereo not drawn) [Compound A5] | 19.23 | 12.11
18 | COc1ccc(CNc2nc(NCCCCCCNc3ccc([N+](=O)[O-])c4nonc34)nc(NC3CCCCC3C)n2)cc1 (stereo not drawn) [Compound C5] | 10.01 | 9.72
19 | O=[N+]([O-])c1ccc(NCCCCCCNc2nc(NCc3cccc(F)c3)nc(NC3CCCCC3)n2)c2nonc12 [Compound E7] | 8.70 | 16.57
20 | Cc1ccc(CNc2nc(NCCCCCCNc3ccc([N+](=O)[O-])c4nonc34)nc(NCCc3ccccn3)n2)cc1 [Compound G9] | 267.03 | 0.20
21 | CC1CCC(Nc2nc(NCCCCCCNc3ccc([N+](=O)[O-])c4nonc34)nc(NCc3ccccc3)n2)CC1 (stereo not drawn) [Compound A4] | 7.72 | 29.83
22 | Cc1ccc(CNc2nc(NCCCCCCNc3ccc([N+](=O)[O-])c4nonc34)nc(NC3CCCCC3)n2)cc1 [Compound G7] | 6.63 | 29.18
23 | COc1cccc(CNc2nc(NCCCCCCNc3ccc([N+](=O)[O-])c4nonc34)nc(NC3CCCCC3C)n2)c1 (stereo not drawn) [Compound B5] | 9.10 | 9.25
24 | Cc1ccc(CNc2nc(NCCCCCCNc3ccc([N+](=O)[O-])c4nonc34)nc(NC(C)C)n2)cc1 [Compound G2] | 211.16 | 0.28
25 | CC1CCC(Nc2nc(NCCCCCCNc3ccc([N+](=O)[O-])c4nonc34)nc(NCCC(c3ccccc3)c3ccccc3)n2)CC1 (stereo not drawn) [Compound F4] | 1.89 | 43.56
26 | CCCCNc1nc(NCCCCCCNc2ccc([N+](=O)[O-])c3nonc23)nc(NCc2cccc(OC)c2)n1 [Compound B1] | 262.28 | 0.31
27 | COc1ccc(CCNc2nc(NCCCCCCNc3ccc([N+](=O)[O-])c4nonc34)nc(NCCc3ccccc3)n2)cc1 [Compound D10] | 9.41 | 13.79
28 | CCCCCCCCNc1nc(NCCCCCCNc2ccc([N+](=O)[O-])c3nonc23)nc(NCc2cccc(OC)c2)n1 [Compound B3] | 3.43 | 31.61
29 | COc1ccc(CNc2nc(NCCCCCCNc3ccc([N+](=O)[O-])c4nonc34)nc(NCCC(C)C)n2)cc1 [Compound C8] | 8.56 | 31.04
30 | Cc1ccc(CNc2nc(NCCCCCCNc3ccc([N+](=O)[O-])c4nonc34)nc(NC3CCCCC3C)n2)cc1 (stereo not drawn) [Compound G5] | 57.45 | 8.94
